In publication PMC9858427, “Design, synthesis and biological evaluation of 2-((4-sulfamoylphenyl)amino)-pyrrolo[2,3-d]pyrimidine derivatives as CDK inhibitors” (Journal of Enzyme Inhibition and Medicinal Chemistry, 2023):
Where two headings read alike, the source gives them in different places.

Columns and labels:
Oral PK study in rats = assay type: in vivo; settings: male, SD, rat, plasma, 30 mg/kg
Method: Synthetic compound was administered as a suspension or solution in the saline with 5% DMSO and 5% Solutol. GCTB was dissolved in saline. All of the experiments were approved by the Institutional Animal Care and Use Committee of Institute of Medicinal Biotechnology. All experiments were carried out under ethics committee–approved protocols and in compliance with the guidelines for the care of laboratory animals of Institute of Medicinal Biotechnology, CAMS.
SD rats were purchased from Beijing Vital River Laboratory Animal Technology Co., Ltd and randomly divided into three groups (n = 3, male). The animals were housed under standard conditions and fastened for 12 h before the treatment. They had free access to water and consumed a standard laboratory diet from 4 h after administration. Blood was taken from the orbital venous plexus at 0, 0.083, 0.25, 0.5, 1, 2, 4, 6, 8, and 24 h after intragastric administration of the test compound (30 mg/kg). The blood samples were collected into heparin anticoagulated EP tubes and centrifuged at 8000 r/min for 5 min at 2−8 °C; the plasma was separated and stored at −70 °C for use. Plasma was centrifuged at 4000 rpm for 10 min at 2−8 °C and stored at −70 °C until analysis. Plasma samples were analysed by LC-MS/MS (AB Sciex API4000 QTRAP) equipped with an ESI ion resource and Analyst 1.5.1 software. The noncompartmental model analysis was used for calculating pharmacokinetic parameters with the WinNolin professional v6.3 program (Pharsight, USA).

[1] = Body weight and H&E pathology of main organs in xenograft mice; assay type: in vivo, BALB/C nude mice
Method: AsPC-1 (5 × 10^7) cells were injected subcutaneously into 5-week-old female BALB/C nude mice (Beijing Huafukang Bioscience CO. Inc, Beijing, China). After two weeks, mice were omogenizamised and treated with vehicle, gemcitabine (GCTB), or test compound. Blank solvent and test compound was administered by oral gavage (10 ml/kg) with once daily of five days and followed by 2 days off in each week, GCTB was given once a week by 50 mg/kg intraperitoneal injection. Mice were inspected daily for clinical signs, both tumour diameters and body weight were determined 3 times weekly. Tumour volumes were calculated according to the formula “tumor volume (V) = length × width^2/2”. Median TGI values were calculated as follows: TGI = 100 × [1-(Vtreated group at day20-Vtreated group at day1)/(Vvehicle group at day20-Vvehicle group at day1)]. Data were plotted as average with SD in the graphical representation of tumour growth. The p values obtained from the two-way ANOVA analysis. Meanwhile, main organs of mice were collected, formalin-fixed and paraffin-embedded for pathological analysis by H&E dyeing. For drug concentration determination, blood and tumour tissues were collected at indicated time after single administration. Standard curve of test compound was established in the acquisition mode of SIM using a SHIMADZU LC-MS instrument. Blood kept in anticoagulant tube coated with heparin sodium was centrifuged to provide the supernatant, which was followed by added with 3-fold acetonitrile to precipitate plasma protein. After centrifugation at 10 × 10^3 for 5 min, the supernatant was injected directedly into LC-MS instrument for quantification of drug concentration. As for tumour tissues, omogenizationation (Precellys Evolution) was done after weighed accurately and added with 3-fold saline. After centrifugation under same condition as plasma samples, supernatant was separated and injected into LC-MS for quantification.

MIA PaCa-2 cells [2] = assay: MTT proliferation assay in MIA PaCa-2 cells; assay type: cell-based, human; settings: Homo sapiens, MIA PaCa-2, 72 h drug exposure
Method: The human pancreatic carcinoma MIA PaCa-2 was purchased from China Centre for Type Culture Collection, AsPC-1 and BxPC-3 cell Lines were purchased from Cell Centre of the Institute of Basic Medical Sciences, Chinese Academy of Medical Sciences and Peking Union Medical College. PANC-1 was kindly provided by Nankai Hospital (Tianjin, China). These cancer cell lines were cultured according to the manufacturer’s instruction.
(§1) Then 3-fold diluted concentrations of tested compound were added respectively which was dissolved by DMSO in the ratio of 1:1000. After indicated incubation period, MTT was added to each well and incubated for 4 h at 37 °C. Then, the supernatant was discarded gently, and the precipitate was dissolved in 100 µL of DMSO in each well. The absorbance (A) at 570 nm was detected with a microplate reader (Multiskan MK3; Thermo Fisher Scientific, MA, USA). Vehicle-treated cells were served as the control for the calculation of relative cell viability (%) of treated group at single concentration. IC50 value was calculated directly from the inhibition curve of serial dilution of test compound and was expressed as mean ± SD using the SPSS statistical software (SPSS17.0 Inc., Chicago, IL, USA).

CDK9 = CDK9 (Homo sapiens, UniProt P50750); assay: CDK9 kinase IC50, Mobility shift assay; assay type: biochemical
Chain of CDK9 (P50750 whole entry): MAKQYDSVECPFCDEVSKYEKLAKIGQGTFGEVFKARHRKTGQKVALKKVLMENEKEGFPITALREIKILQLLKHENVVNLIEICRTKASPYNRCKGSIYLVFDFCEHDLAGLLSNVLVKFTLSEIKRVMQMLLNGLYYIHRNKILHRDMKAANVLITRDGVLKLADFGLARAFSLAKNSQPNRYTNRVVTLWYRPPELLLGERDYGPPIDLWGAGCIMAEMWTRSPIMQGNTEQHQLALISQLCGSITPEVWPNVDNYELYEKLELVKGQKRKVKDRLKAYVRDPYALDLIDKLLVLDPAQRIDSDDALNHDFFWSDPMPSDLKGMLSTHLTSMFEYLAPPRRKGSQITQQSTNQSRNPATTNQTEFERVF
Chain of CDK9 (O60563 whole entry partner): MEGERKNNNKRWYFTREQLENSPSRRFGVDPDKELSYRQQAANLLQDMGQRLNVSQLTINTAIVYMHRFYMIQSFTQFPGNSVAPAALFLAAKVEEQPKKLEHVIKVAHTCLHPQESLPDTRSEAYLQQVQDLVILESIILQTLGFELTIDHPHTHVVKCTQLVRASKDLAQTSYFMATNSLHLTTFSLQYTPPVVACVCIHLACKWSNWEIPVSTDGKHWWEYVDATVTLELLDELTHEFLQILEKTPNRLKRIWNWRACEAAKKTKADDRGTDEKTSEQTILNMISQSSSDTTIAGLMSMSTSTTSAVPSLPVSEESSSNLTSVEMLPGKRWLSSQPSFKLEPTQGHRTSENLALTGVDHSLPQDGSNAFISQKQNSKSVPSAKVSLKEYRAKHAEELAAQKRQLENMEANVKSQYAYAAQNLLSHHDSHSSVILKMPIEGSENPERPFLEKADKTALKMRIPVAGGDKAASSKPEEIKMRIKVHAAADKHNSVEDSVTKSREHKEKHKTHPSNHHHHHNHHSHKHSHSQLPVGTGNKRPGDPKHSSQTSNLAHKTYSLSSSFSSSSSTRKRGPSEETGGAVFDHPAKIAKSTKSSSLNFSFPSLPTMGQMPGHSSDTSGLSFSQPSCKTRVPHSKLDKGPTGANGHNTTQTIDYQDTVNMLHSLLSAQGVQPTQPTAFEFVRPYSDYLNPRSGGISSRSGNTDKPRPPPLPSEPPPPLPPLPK
Method: (§2) CDK kinase activity (IC50 values and inhibitory rate at single concentration) was measured using the kinase profiling services (Shanghai ChemPartner Co., Ltd). Compounds were sent to ChemPartner as a solution in DMSO at concentration of 10 mM.

CDK4 = CDK4 (Homo sapiens, UniProt P11802); assay: CDK4 kinase IC50, Mobility shift assay; assay type: biochemical
Chain of CDK4 (P11802 whole entry): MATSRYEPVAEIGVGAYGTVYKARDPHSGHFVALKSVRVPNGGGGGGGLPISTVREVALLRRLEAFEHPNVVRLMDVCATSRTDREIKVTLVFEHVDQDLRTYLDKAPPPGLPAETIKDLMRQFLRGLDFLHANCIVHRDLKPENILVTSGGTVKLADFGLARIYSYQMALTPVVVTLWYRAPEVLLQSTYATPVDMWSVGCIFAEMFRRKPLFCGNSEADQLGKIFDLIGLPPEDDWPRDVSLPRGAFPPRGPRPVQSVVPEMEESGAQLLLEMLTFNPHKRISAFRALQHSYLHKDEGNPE
Chain of CDK4 (P30281 whole entry partner): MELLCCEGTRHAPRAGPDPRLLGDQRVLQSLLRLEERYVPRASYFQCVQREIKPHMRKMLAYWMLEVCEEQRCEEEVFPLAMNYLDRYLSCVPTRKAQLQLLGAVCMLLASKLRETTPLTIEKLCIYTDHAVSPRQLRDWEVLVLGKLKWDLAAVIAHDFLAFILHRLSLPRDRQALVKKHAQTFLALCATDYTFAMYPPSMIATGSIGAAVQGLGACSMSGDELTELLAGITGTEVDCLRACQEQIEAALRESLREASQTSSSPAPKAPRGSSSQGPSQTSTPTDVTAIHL
Method: as §2

[3] = Solubility / precipitation observations; assay type: physicochemical
MIA PaCa-2 cells [4] = assay: Cell viability after CDK9 knockdown by siRNA; assay type: cell-based, human; settings: siCDK9 50 nM; compound 0.2 µM, 72 h
Method: as §1, with “Cells were planted in 96-well plates at a density of 3000–4000 cells per well and incubated at 37 °C in a humidified CO2 incubator for 24 h. Then 3-fold” for “Then 3-fold”
Specific siRNAs against CDK9 (Catelog ID: SIGS0004694-1) were purchased from RiboBio (Guangdong, China) together with a scrambled siRNA. […] Approximately 48 h after transfection, the cells were analysed for protein expression by Western blot. […]

CN(C)C(=O)c1cc2cnc(Nc3ccc(S(N)(=O)=O)cc3)nc2n1C1CCCC1 [compound 2g, 7-Cyclopentyl-N,N-dimethyl-2-((4-sulfamoylphenyl)amino)-7H-pyrrolo[2,3-d]pyrimidine-6-carboxamide]
Cmax (Oral PK study in rats; single oral administration, read-out: maximum plasma drug concentration (Cmax)): 1160 ng/mL | AUC (Oral PK study in rats; single oral administration, read-out: systematic exposure (AUC0‑t)): 4620 ng·h/mL | AUC(0-inf) (Oral PK study in rats; oral, n = 3): 5080 ± 268 ng·h/mL | AUC(0-t) (Oral PK study in rats; oral, n = 3): 4620 ± 145 ng·h/mL | MRT (Oral PK study in rats; oral, n = 3): 7.72 h | Tmax (Oral PK study in rats; oral, n = 3): 0.5 h | half-life (Oral PK study in rats; oral, n = 3): 7.54 h | Cmax (Oral PK study in rats; oral, n = 3, read-out: Cmax): 2700 nM | pathological change in main organs (H&E) ([1]; after 3-week treatment): no obvious pathological change | body weight change ([1]; high dose of 2g, first ten days of administration): obvious decrease of body weight | IC50 (MIA PaCa-2 cells [2]): 0.52 ± 0.67 µM | IC50 (CDK9): 5 nM | IC50 (CDK4): 12 nM | solubility (in words) [3]: much poorer than 5b | sensitivity of MIA PaCa-2 cells to compound after downregulation of CDK9 by siRNA (MIA PaCa-2 cells [4]): significantly decreased
